Experimental data: patent US5712129A, “Rapamycin derivative with antimicrobial, anticancer and immunomodulation activity” (SmithKline Beecham p. l. c., priority 1993, dated 1998)
Read-outs that look alike come from different tables or passages of the source.

Tested on: Spleen cells
Assay: Mitogenesis assay for immunosuppressive activity (concanavalin A stimulated spleen cells, 3H-thymidine)
Type: cell-based, BDF1 female mice
Conditions: Mus musculus, read-out: Mitogenesis (IC50)
Protocol: Spleen cells for BDF1 female mice were established in RPMI with 10% fetal calf serum at 5×10^6 /mL. One hundred […] of this suspension (5×10^5 cells) were dispensed into 96-well round-bottomed microtiter plates (Linbro, Flow Laboratories). Concanavalin A (5 μg/ml) was added as the mitogenic stimulus, and the final volume in the microtiter wells was adjusted to 200 μL with RPMI. Cell cultures were incubated for 72 hours at 37° C. in a 5% CO2 atmosphere and pulsed with 0.5 μCi ^3 H-thymidine (specific activity […]) for the last 18 hours of the 72 hours culture. The cells were harvested on an automated multiple sample harvester and cell-associated radioactivity counted in a Beckman liquid scintillation counter. The results were expressed as the mean values derived from quadruplicate measurements. Cell viability was determined by trypan blue exclusion after 72 hours of incubation. Compounds to be tested were added to the microtiter plates at the appropriate dilutions prior to the addition of cells.

Row | IC50 (Concanavalin A 5 μg/ml, 72 hours at 37° C., 3H-thymidine pulse last 18 hours) [nM] | SMILES | IC50 [nM]
1 | 3 | COC1CC2CCC(C)C(O)(O2)C(=O)C(=O)N2CCCCC2C(=O)OC(C(C)CC2CCC(O)C(O)C2)CC(=O)C(C)C=C(C)C(O)C(OC)C(=O)C(C)CC(C)C=CC=CC=C1C (centres unmarked) [42-O-demethylrapamycin] | –
2 | – | CO[C@H]1C[C@@H]2CC[C@@H](C)[C@@](O)(O2)C(=O)C(=O)N2CCCC[C@H]2C(=O)O[C@H]([C@H](C)C[C@@H]2CC[C@@H](O)[C@H](OC)C2)CC(=O)[C@H](C)/C=C(\C)[C@@H](O)[C@@H](OC)C(=O)[C@H](C)C[C@H](C)/C=C/C=C/C=C/1C [rapamycin] | 1 ± 1
